One series has as its system Mycobacterium kansasii. The series can be described thus: Antimycobacterial activity against Mycobacterium kansasii CNCTC My 235/80 incubated for 5 to 7 days by microplate alamar blue assay. It counts as functional. (Alamar Blue is a resazurin reagent that responds to reducing activity.)
Series [1] is described as follows: Cytotoxicity against human HeLa cells assessed as cell viability after 4 to 6 days by microscopic analysis. It counts as cell-based.
In series [2] the test system is Trichophyton mentagrophytes. Description: Antifungal activity against Trichophyton mentagrophytes 445 after 72 to 120 hrs by broth microdilution method. In kind it is functional. (In broth dilution the organism is exposed to a series of concentrations in liquid medium.)
The test system of series [3] is Mycobacterium avium. Description: Antimycobacterial activity against Mycobacterium avium CNCTC My 152/73 after 5 days by microplate alamar blue assay. The following applies: CNCTC My 152/73, 120 h. In kind it is functional.
The test system of a further series is Nakaseomyces glabratus. The series can be described thus: Antifungal activity against Candida glabrata 20/I after 24 to 48 hrs by broth microdilution method. It counts as functional.
In series [4] the test system is Mycobacterium avium. Description: Antimycobacterial activity against Mycobacterium avium CNCTC My 80/72 after 5 days by microplate alamar blue assay. It counts as functional. Particulars: CNCTC My 80/72, 120 h.
Series [5] concerns Staphylococcus aureus. Description: Antibacterial activity against Staphylococcus aureus after 24 to 48 hrs by broth microdilution method. It counts as functional.
For a further series, the system named is Pichia kudriavzevii. The series can be described thus: Antifungal activity against Candida krusei E28 after 24 to 48 hrs by broth microdilution method. It counts as functional.
Series [6] can be described thus: Cytotoxicity against African green monkey Vero cells assessed as cell viability after 4 to 6 days by microscopic analysis. It counts as cell-based. The following applies: chlorocebus sabaeus.
Series [7] in a line: Cytotoxicity against MDCK cells assessed as cell viability after 4 to 6 days by microscopic analysis. It counts as cell-based, Canis lupus familiaris. Particulars: dog.
In another series the test system is Lichtheimia corymbifera. Description: Antifungal activity against Lichtheimia corymbifera 272 after 24 to 48 hrs by broth microdilution method. It counts as functional.
Series [8] concerns Mycobacterium tuberculosis. The series can be described thus: Antimycobacterial activity against Mycobacterium tuberculosis H37Rv CNCTC My 331/88 incubated for 10 to 14 days by microplate alamar blue assay. It counts as functional.
In another series the test system is Pseudomonas aeruginosa. The series can be described thus: Antibacterial activity against Pseudomonas aeruginosa CCM 1961 after 24 to 48 hrs by broth microdilution method. In kind it is functional.
Series [9] in a line: Lipophilicity, logK of the compound by RP-HPLC analysis. In kind it is physicochemical.
The subject of another series is Candida tropicalis. The series can be described thus: Antifungal activity against Candida tropicalis 156 after 24 to 48 hrs by broth microdilution method. In kind it is functional.
In a further series the test system is Candida albicans. The series can be described thus: Antifungal activity against Candida albicans ATCC 44859 after 24 to 48 hrs by broth microdilution method. It counts as functional.
In another series the test system is Trichosporon asahii. Description: Antifungal activity against Trichosporon asahii 1188 after 24 to 48 hrs by broth microdilution method. It counts as functional.
The subject of series [10] is Influenza A virus. The series can be described thus: Antiviral activity against Influenza A virus (A/Puerto Rico/8/(H1N1)) assessed as inhibition of virus-induced cytopathic effect after 3 to 6 days by microscopic analysis. It counts as functional, organism-based. On the technique in general: Cytopathic effects are the visible damage that an infection or toxin causes in cultured cells.

Series [11] can be described thus: Cytotoxicity against MDCK cells assessed as cell viability after 4 to 6 days by formazan-based MTS assay. Particulars: dog. On the set-up: species or system Canis lupus familiaris.
Series [12] is described as follows: Cytotoxicity against HEL cells assessed as cell viability after 4 to 6 days by microscopic analysis. In kind it is cell-based. Particulars: human.
In series [13] the test system is Klebsiella pneumoniae. Description: Antibacterial activity against ESBL positive Klebsiella pneumoniae J 14368/08 after 24 to 48 hrs by broth microdilution method. In kind it is functional.
In a further series the test system is Escherichia coli. Description: Antibacterial activity against Escherichia coli CCM 4517 after 24 to 48 hrs by broth microdilution method. In kind it is functional.
Series [14] concerns Klebsiella pneumoniae. Description: Antibacterial activity against Klebsiella pneumoniae D 11750/08 after 24 to 48 hrs by broth microdilution method. In kind it is functional.
The test system of series [15] is Influenza A virus. Description: Antiviral activity against Influenza A virus (A/Puerto Rico/8/(H1N1)) assessed as inhibition of virus-induced cytopathic effect after 3 to 6 days by formazan-based MTS assay. In kind it is functional, organism-based.
The subject of series [16] is Mycobacterium tuberculosis. The series can be described thus: Potency index, ratio of pyrazinamide MIC to compound MIC for Mycobacterium tuberculosis H37Rv CNCTC My 331/88. It counts as functional.
Series [17] deals with Staphylococcus aureus. Description: Antibacterial activity against methicillin-resistant Staphylococcus aureus H 5996/08 after 24 to 48 hrs by broth microdilution method. In kind it is functional, organism-based.
For a further series, the system named is Aspergillus fumigatus. Description: Antifungal activity against Aspergillus fumigatus 231 after 24 to 48 hrs by broth microdilution method. In kind it is functional.
The nature of series [18]: Cytotoxicity against CRFK cells assessed as cell viability after 4 to 6 days by formazan-based MTS assay. Particulars: cat. Further details: species or system Felis catus.
Series [19] relates to Mycobacterium tuberculosis. Description: Inhibition of mycolic acid synthesis in [1,2-14C]-acetate-labelled Mycobacterium tuberculosis H37Ra at 5 ug/ml preincubated for 20 hrs followed by radiolabelling measured after 24 hrs by autoradiography. It counts as functional, organism-based.
Series [20] relates to Respiratory syncytial virus. Description: Antiviral activity against Respiratory syncytial virus infecetd in human HeLa cells assessed as inhibition of virus replication after 3 to 6 days. In kind it is functional, organism-based.
Series [21] in a line: Inhibition of Mycobacterium tuberculosis InhA.

Structures are written as SMILES. Values after ≈ are worked out from the molar mass of the structure shown. Active and inactive are the calls of the source. No cut-off for these calls is given here.

The MIC is the lowest concentration found to suppress growth. The EC50 is the concentration needed to bring the measured effect to its halfway point. As usually defined, the CC50 is the concentration that lowers cell viability or growth by half. As for `CCCCCCCCNc1cncc(C(=O)NCc2ccccc2)n1`, the minimal inhibitory concentration (MIC) in the series with Mycobacterium kansasii is 18 µM; in series [2], more than 500 µM; in the series on Mycobacterium avium [3], more than 100 µg/mL; against Nakaseomyces glabratus, more than 500 µM; in the series on Mycobacterium avium [4], more than 100 µg/mL; in the series with Pichia kudriavzevii it was more than 500 µM. The MIC is more than 500 µM against Lichtheimia corymbifera; 9.2 µM (≈ 3.13 µg/mL) in series [8]; more than 500 µM in the series with Candida tropicalis; more than 500 µM against Candida albicans; more than 500 µM in the series with Trichosporon asahii; more than 500 µM against Aspergillus fumigatus. Besides, the MCC was more than 100 µM in series [1], more than 100 µM in [6], 4 µM in [7] and more than 100 µM in series [12]. Besides, the MIC95 with Staphylococcus aureus [5] was 3.9 µM (≈ 1.33 µg/mL); with Pseudomonas aeruginosa it was more than 500 µM; against Klebsiella pneumoniae [13], more than 500 µM; in the series on Escherichia coli, more than 500 µM; in the series with Klebsiella pneumoniae [14], more than 500 µM. In addition, the “log K” value in series [9] is 1.431. The EC50 with Influenza A virus [10] and with Influenza A virus [15] was more than 100 µM in each case. Further, the CC50 in series [11] was 1.3 µM; in [18], more than 100 µM. Further, the Ratio entry in [16] is recorded as “<=20”. The outcome in the series on Staphylococcus aureus [17] was inactive.
In the case of `CCCCCCCCNc1cnc(C(=O)NCc2ccccc2)cn1`, the MIC in the series with Mycobacterium kansasii is more than 100 µg/mL; in series [2], more than 500 µM; in the series with Mycobacterium avium [3] it was more than 100 µg/mL; against Nakaseomyces glabratus it was more than 500 µM; in the series with Mycobacterium avium [4], more than 100 µg/mL; in the series with Pichia kudriavzevii it was more than 500 µM. For the same compound, the MIC is more than 500 µM against Lichtheimia corymbifera; 4.6 µM (≈ 1.57 µg/mL) in series [8]; more than 500 µM against Candida tropicalis; more than 500 µM against Candida albicans; more than 500 µM with Trichosporon asahii; more than 500 µM with Aspergillus fumigatus. Moreover, the MCC in [1] is 100 µM; in series [6] it was 20 µM; in [7] it was not below 20 µM; in series [12], 100 µM. For the same compound, in series [19], the inhibition entry was “inactive”. The MIC95 with Pseudomonas aeruginosa, in the series with Klebsiella pneumoniae [13], in the series with Escherichia coli and against Klebsiella pneumoniae [14] was more than 500 µM throughout. For the same compound, in series [9], the “log K” value worked out at 1.312. The figures for the EC50 (in the series on Influenza A virus [10]; in the series with Influenza A virus [15]; in series [20]) were 1.1 µM, more than 100 µM and 8.9 µM, respectively. Besides, the 50% cytotoxic concentration (CC50) in series [11] came out at 62 µM; in series [18] it was 28 µM. Besides, in series [16], the Ratio result is on record as “<=20”.
As a reminder, the IC50 is the concentration at which inhibition is half-maximal. Consider `CCCCCCCCc1ccc(Oc2ccccc2)c(O)c1`, for which inhibition in series [21] was half-maximal at 0.005 µM (IC50).

Values taken from ChEMBL document CHEMBL3745676, “Alkylamino derivatives of N-benzylpyrazine-2-carboxamide: synthesis and antimycobacterial evaluation” (Medchemcomm, 2015).
